# Assay results published in US10766902B2, “Wee-1 inhibiting pyrazolopyrimidinone compounds” (ALMAC DISCOVERY LIMITED, priority 2016, dated 2020).
# Molecular target: Wee-1 kinase (Homo sapiens (Human), UniProt P30291)
# Test: Measurement of Wee-1 kinase activity (ADP-Glo luminescence)
# Type: biochemical
# Conditions: read-out: Wee1 IC50
# In short: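 Activated Wee-1 preincubated 30 min at RT with compound in Tris/MgCl2 buffer with BSA and DTT, then reacted 1 h at RT with poly(Lys,Tyr 4:1) (2.0 μg/mL) and 30 μM ATP as added aliquot. ADP formed measured by ADP-Glo luminescence; IC50 by non-linear regression of % inhibition.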
# Sequence of Wee-1 kinase (P30291 whole entry): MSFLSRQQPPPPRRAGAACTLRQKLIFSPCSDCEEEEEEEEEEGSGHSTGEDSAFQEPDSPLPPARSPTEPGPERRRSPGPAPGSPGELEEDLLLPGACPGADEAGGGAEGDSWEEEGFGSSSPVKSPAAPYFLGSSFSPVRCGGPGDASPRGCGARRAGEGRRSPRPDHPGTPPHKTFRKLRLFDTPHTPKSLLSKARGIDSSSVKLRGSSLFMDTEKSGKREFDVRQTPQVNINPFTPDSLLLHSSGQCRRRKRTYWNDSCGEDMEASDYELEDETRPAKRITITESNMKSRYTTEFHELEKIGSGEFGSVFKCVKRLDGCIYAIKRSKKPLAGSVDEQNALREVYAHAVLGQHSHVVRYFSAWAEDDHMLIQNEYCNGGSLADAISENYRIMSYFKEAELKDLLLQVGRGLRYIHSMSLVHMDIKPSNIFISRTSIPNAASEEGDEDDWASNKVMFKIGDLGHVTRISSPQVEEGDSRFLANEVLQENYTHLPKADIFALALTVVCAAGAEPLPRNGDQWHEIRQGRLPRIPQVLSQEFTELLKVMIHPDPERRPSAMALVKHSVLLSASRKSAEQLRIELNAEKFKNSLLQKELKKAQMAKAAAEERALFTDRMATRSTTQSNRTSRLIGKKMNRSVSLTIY
row,SMILES,IC50
1,"C=CCn1c(=O)c2cnc(Nc3ccc(N4C[C@@H]5C[C@H]4CO5)cc3)nc2n1-c1cccc(N=S(C)(C)=O)n1 [Example 68, 1-(6-{[Dimethyl(oxo)-λ^6-sulfanylidene]amino}pyridin-2-yl)-6-({4-[(1S,4S)-2-oxa-5-azabicyclo[2.2.1]heptan-5-yl]phenyl}amino)-2-(prop-2-en-1-yl)-1H,2H,3H-pyrazolo[3,4-d]pyrimidin-3-one]",0.3 nM
2,"CC(C)n1c(=O)c2cnc(Nc3ccc(C#N)cc3)nc2n1-c1cccc(N=S(C)(C)=O)n1 [Example 71, 4-{[1-(6-{[Dimethyl(oxo)-λ^6-sulfanylidene]amino}pyridin-2-yl)-3-oxo-2-(propan-2-yl)-1H,2H,3H-pyrazolo[3,4-d]pyrimidin-6-yl]amino}benzonitrile]",26 nM
3,"CC(C)n1c(=O)c2cnc(Nc3ccc(C(F)(F)F)cc3)nc2n1-c1cccc(N=S(C)(C)=O)n1 [Example 72, 1-(6-{[Dimethyl(oxo)-λ^6-sulfanylidene]amino}pyridin-2-yl)-2-(propan-2-yl)-6-{[4-(trifluoromethyl)phenyl]amino}-1H,2H,3H-pyrazolo[3,4-d]pyrimidin-3-one]",19 nM
4,"CC(C)n1c(=O)c2cnc(Nc3cccc(C(F)(F)F)c3)nc2n1-c1cccc(N=S(C)(C)=O)n1 [Example 73, 1-(6-{[Dimethyl(oxo)-λ^6-sulfanylidene]amino}pyridin-2-yl)-2-(propan-2-yl)-6-{[3-(trifluoromethyl)phenyl]amino}-1H,2H,3H-pyrazolo[3,4-d]pyrimidin-3-one]",66 nM
5,"C=CCn1c(=O)c2cnc(Nc3ccc(N4CCO[C@H](COC)C4)cc3)nc2n1-c1cncc(N=S(C)(C)=O)n1 [Example 74, 1-(6-{[Dimethyl(oxo)-λ^6-sulfanylidene]amino}pyrazin-2-yl)-6-({4-[(2S)-2-(methoxymethyl)morpholin-4-yl]phenyl}amino)-2-(prop-2-en-1-yl)-1H,2H,3H-pyrazolo[3,4-d]pyrimidin-3-one]",0.3 nM
6,"C=CCn1c(=O)c2cnc(Nc3ccc(F)cc3)nc2n1-c1cncc(N=S(C)(C)=O)n1 [Example 75, 1-(6-{[Dimethyl(oxo)-λ^6-sulfanylidene]amino}pyrazin-2-yl)-6-[(4-fluorophenyl)amino]-2-(prop-2-en-1-yl)-1H,2H,3H-pyrazolo[3,4-d]pyrimidin-3-one]",1.4 nM
7,"C=CCn1c(=O)c2cnc(Nc3ccc(F)c(OC)c3)nc2n1-c1cccc(N=S(C)(C)=O)n1 [Example 82, 1-(6-{[Dimethyl(oxo)-λ^6-sulfanylidene]amino}pyridin-2-yl)-6-[(4-fluoro-3-methoxyphenyl)amino]-2-(prop-2-en-1-yl)-1H,2H,3H-pyrazolo[3,4-d]pyrimidin-3-one]",0.4 nM
8,"C=CCn1c(=O)c2cnc(Nc3cc(F)cc(F)c3)nc2n1-c1cccc(N=S(C)(C)=O)n1 [Example 84, 6-[(3,5-Difluorophenyl)amino]-1-(6-{[dimethyl(oxo)-λ^6-sulfanylidene]amino}pyridin-2-yl)-2-(prop-2-en-1-yl)-1H,2H,3H-pyrazolo[3,4-d]pyrimidin-3-one]",1 nM
9,"C=CCn1c(=O)c2cnc(Nc3ccc(C4CCN(C5CCC5)CC4)c(C)c3)nc2n1-c1cccc(N=S(C)(C)=O)n1 [Example 88, 6-{[4-(1-Cyclobutylpiperidin-4-yl)-3-methylphenyl]amino}-1-(6-{[dimethyl(oxo)-λ^6-sulfanylidene]amino}pyridin-2-yl)-2-(prop-2-en-1-yl)-1H,2H,3H-pyrazolo[3,4-d]pyrimidin-3-one]",0.4 nM
10,"C=CCn1c(=O)c2cnc(Nc3ccc(N(C)CCOC)cc3)nc2n1-c1cccc(N=S(C)(C)=O)n1 [Example 89, 1-(6-{[Dimethyl(oxo)-λ^6-sulfanylidene]amino}pyridin-2-yl)-6-({4-[(2-methoxyethyl)(methyl)amino]phenyl}amino)-2-(prop-2-en-1-yl)-1H,2H,3H-pyrazolo[3,4-d]pyrimidin-3-one]",0.2 nM
11,"C=CCn1c(=O)c2cnc(Nc3ccc(N4CCOCC4)cc3)nc2n1-c1cccc(CN=S(C)(C)=O)n1 [Example 91, 1-[6-({[Dimethyl(oxo)-λ^6-sulfanylidene]amino}methyl)pyridin-2-yl]-6-{[4-(morpholin-4-yl)phenyl]amino}-2-(prop-2-en-1-yl)-1H,2H,3H-pyrazolo[3,4-d]pyrimidin-3-one]",22.1 nM
12,"CS(C)(=O)=Nc1cccc(-n2c3nc(Nc4ccc(N5CCOCC5)cc4)ncc3c(=O)n2CC2CC2)n1 [Example 92, 2-(Cyclopropylmethyl)-1-(6-{[dimethyl(oxo)-λ^6-sulfanylidene]amino}pyridin-2-yl)-6-{[4-(morpholin-4-yl)phenyl]amino}-1H,2H,3H-pyrazolo[3,4-d]pyrimidin-3-one]",8.8 nM
13,"C#CCn1c(=O)c2cnc(Nc3cnn(C(C)C)c3)nc2n1-c1cccc(N=S(C)(C)=O)n1 [Example 94, 1-(6-((Dimethyl(oxo)-λ^6-sulfaneylidene)amino)pyridin-2-yl)-6-((1-isopropyl-1H-pyrazol-4-yl)amino)-2-(prop-2-yn-1-yl)-1,2-dihydro-3H-pyrazolo[3,4-d]pyrimidin-3-one]",1.2 nM

# Continued, values first:
row,IC50,SMILES
1,0.5 nM,"C=CCn1c(=O)c2cnc(Nc3ccc(F)c(F)c3)nc2n1-c1cccc(N=S(C)(C)=O)n1 [Example 66, 6-[(3,4-Difluorophenyl)amino]-1-(6-{[dimethyl(oxo)-λ^6-sulfanylidene]amino}pyridin-2-yl)-2-(prop-2-en-1-yl)-1H,2H,3H-pyrazolo[3,4-d]pyrimidin-3-one]"
2,2.5 nM,"C=CCn1c(=O)c2cnc(Nc3ccc(F)nc3)nc2n1-c1cccc(N=S(C)(C)=O)n1 [Example 70, 1-(6-{[Dimethyl(oxo)-λ^6-sulfanylidene]amino}pyridin-2-yl)-6-[(6-fluoropyridin-3-yl)amino]-2-(prop-2-en-1-yl)-1H,2H,3H-pyrazolo[3,4-d]pyrimidin-3-one]"
3,1000 nM,"C=CCn1c(=O)c2cnc(Nc3cccnc3)nc2n1-c1cccc(N=S(C)(C)=O)n1 [Example 77, 1-(6-{[Dimethyl(oxo)-λ^6-sulfanylidene]amino}pyridin-2-yl)-2-(prop-2-en-1-yl)-6-[(pyridin-3-yl)amino]-1H,2H,3H-pyrazolo[3,4-d]pyrimidin-3-one]"
4,2.5 nM,"C=CCn1c(=O)c2cnc(Nc3cnn(C)c3)nc2n1-c1cccc(N=S2(=O)CCCC2)n1 [Example 78, 6-[(1-Methyl-1H-pyrazol-4-yl)amino]-1-{6-[(1-oxo-1λ^6-thiolan-1-ylidene)amino]pyridin-2-yl}-2-(prop-2-en-1-yl)-1H,2H,3H-pyrazolo[3,4-d]pyrimidin-3-one]"
5,46 nM,"C=CCn1c(=O)c2cnc(Nc3cnn(C)c3)nc2n1-c1cccc(N=[S@@](C)(=O)c2ccccc2)n1 [Example 79, 1-(6-{[(S)-Methyl(oxo)phenyl-λ^6-sulfanylidene]amino}pyridin-2-yl)-6-[(1-methyl-1H-pyrazol-4-yl)amino]-2-(prop-2-en-1-yl)-1H,2H,3H-pyrazolo[3,4-d]pyrimidin-3-one]"
6,0.3 nM,"C=CCn1c(=O)c2cnc(Nc3cnn(C(C)C)c3)nc2n1-c1cccc(N=S(C)(C)=O)n1 [Example 80, 1-(6-{[Dimethyl(oxo)-λ^6-sulfanylidene]amino}pyridin-2-yl)-2-(prop-2-en-1-yl)-6-{[1-(propan-2-yl)-1H-pyrazol-4-yl]amino}-1H,2H,3H-pyrazolo[3,4-d]pyrimidin-3-one]"
7,1.3 nM,"C=CCn1c(=O)c2cnc(Nc3ccc(C(F)(F)F)nc3)nc2n1-c1cccc(N=S(C)(C)=O)n1 [Example 81, 1-(6-{[Dimethyl(oxo)-λ^6-sulfanylidene]amino}pyridin-2-yl)-2-(prop-2-en-1-yl)-6-{[6-(trifluoromethyl)pyridin-3-yl]amino}-1H,2H,3H-pyrazolo[3,4-d]pyrimidin-3-one]"
8,0.6 nM,"C=CCn1c(=O)c2cnc(Nc3cnn(CC(F)(F)F)c3)nc2n1-c1cccc(N=S(C)(C)=O)n1 [Example 85, 1-(6-{[Dimethyl(oxo)-λ^6-sulfanylidene]amino}pyridin-2-yl)-2-(prop-2-en-1-yl)-6-{[1-(2,2,2-trifluoroethyl)-1H-pyrazol-4-yl]amino}-1H,2H,3H-pyrazolo[3,4-d]pyrimidin-3-one]"
9,0.2 nM,"C=CCn1c(=O)c2cnc(Nc3ccc(N4CCC4)cc3)nc2n1-c1cccc(N=S(C)(C)=O)n1 [Example 90, 6-{[4-(Azetidin-1-yl)phenyl]amino}-1-(6-{[dimethyl(oxo)-λ^6-sulfanylidene]amino}pyridin-2-yl)-2-(prop-2-en-1-yl)-1H,2H,3H-pyrazolo[3,4-d]pyrimidin-3-one]"
10,0.8 nM,"C=CCn1cc(Nc2ncc3c(=O)n(CC=C)n(-c4cccc(N=S(C)(C)=O)n4)c3n2)cn1 [Example 95, 2-Allyl-6-((1-allyl-1H-pyrazol-4-yl)amino)-1-(6-((dimethyl(oxo)-λ^6-sulfaneylidene)amino)pyridin-2-yl)-1,2-dihydro-3H-pyrazolo[3,4-d]pyrimidin-3-one]"
11,0.4 nM,"C=CCn1c(=O)c2cnc(Nc3cnn(C4CCCCC4)c3)nc2n1-c1cccc(N=S(C)(C)=O)n1 [Example 96, 2-Allyl-6-((1-cyclohexyl-1H-pyrazol-4-yl)amino)-1-(6-((dimethyl(oxo)-λ^6-sulfaneylidene)amino)pyridin-2-yl)-1,2-dihydro-3H-pyrazolo[3,4-d]pyrimidin-3-one]"
